Where two headings read alike, the source gives them in different places.
Tests used:
CYP2D6 [1] = conditions: cited from earlier work; for Km: literature value adapted with fu,inc
estrogen receptor = conditions: read-out: half-maximal inhibitory concentration towards the estrogen receptor; cited from earlier work
[2] = set-up: method as in PMID 22108178; conditions: healthy female volunteers; cited from earlier work
CYP2D6 [3] = assay: In vitro scaling factors from CYP2D6 activity score-specific in vitro metabolite formation rates; assay type: in vitro ADME, human
Excerpt: Here, kcat, AS=i represents the catalytic rate constant for CYP2D6 AS = i, kcat, AS=2 is the catalytic rate constant for the NM population and IVSFi is the corresponding in vitro scaling factor (IVSF).
S2. Drug-Gene-Interaction (DGI) Modeling
S2.1. CYP2D6 in vitro Scaling Factors
The estimated CYP2D6 kcat values for the NM population were extrapolated to the intermediate metabolizers (IM) (AS=0.5, AS=0.75 and AS=1) and ultrarapid metabolizers (UM) populations according to Equation 1 in the main manuscript, using in vitro scaling factors (IVSFs). Determination of IVSFs were based on AS-specific in vitro metabolite formation rates relative to the corresponding formation rate in NM as a reference. The respective IVSFs for each CYP2D6-dependent pathway are depicted in Table S8. Measured in vitro data for (E)-4-OH-Clom and (E)-4-OH-DE-Clom AS-specific formation rates were available, while mean values were assumed for the remaining CYP2D6-dependent metabolic pathways.
Table S8. Employed in vitro scaling factors (IVSFs) for individual CYP2D6 activity scores. […]

[4] = cited from earlier work; for Solubility (pH 6.5): ref [30]; for Solubility (pH 6.5) / pKa (base), literature: [34]; for Solubility (pH 6.5) / pKa (base), literature / pKa (acid): [38] of supplement (ChemAxon Chemicalize); for pKa (base), literature: ref [23], [30]; for pKa (acid): ref [34]
CYP3A4 = system: CYP3A4; set-up: method as in ref [17, 18] of supplement; conditions: ref [17, 18] of supplement, cited from earlier work; for Km: literature value adapted with fu,inc
[5] = set-up: method as in ref [35] of supplement; conditions: ref [35] of supplement; cited from earlier work
[6] = Pharmacokinetic panel study in CYP2D6-genotyped healthy female volunteers (observed plasma AUClast/Cmax, DGI and DD(G)I with clarithromycin or paroxetine); assay type: in vivo, human; conditions: for order of AUClast across CYP2D6 phenotypes: DGI setting
Method: Clinical data from a recently performed pharmacokinetic panel study (EudraCT-Nr.: 2009-014531-20, ClinicalTrails.gov: NCT01289756) were used for PBPK model development. The study protocol, patient information sheet and consent form were approved by the Ethics Committee of the University of Tübingen and the German Federal Institute for Drugs and Medical Devices (BfArM). All study participants had signed an informed consent form.
The study was conducted in 20 healthy, Caucasian, premenopausal female volunteers that were genotyped for CYP2D6 polymorphisms and subsequently assigned to predicted phenotypes according to the respective CYP2D6 activity score (AS) as depicted in Table 1 [17, 18]. […] After a wash-out phase of at least three weeks, clomiphene was administered concomitantly with the strong CYP3A4 inhibitor clarithromycin [19]. Here, the participants received 500 mg clarithromycin twice daily for four days. On day 5, a single dose of clomiphene citrate was administered together with 500 mg clarithromycin. Finally, in the third period, all subjects received clomiphene citrate together with the strong CYP2D6 inhibitor paroxetine. Here, 40 mg paroxetine was administered once daily for two days. On day 3, participants received a single dose of clomiphene citrate concomitantly with 40 mg paroxetine (Figure 1).
For the evaluation of DGI and DD(G)I effects, the predicted AUClast and Cmax effect ratios were calculated according to Equations (4) and (5) and compared with the corresponding observed values. Here, model performance was assessed using the prediction acceptance limits proposed by Guest et al. with 1.25-fold variability. (4) AUClast, AS=i ratio=AUClast, effect, AS=i/AUClast, control (5) Cmax, AS=i ratio=Cmax, effect, AS=i/Cmax, control
For the calculation of DGI ratios, AUClast, effect, AS=i and Cmax, effect, AS=i represent the AUClast and Cmax for CYP2D6 AS = i, while AUClast, control and Cmax, control are the AUClast and Cmax values for the NM (AS = 2) population. For the calculation of DD(G)I ratios, AUClast, effect, AS=i and Cmax, effect, AS=i represent the AUClast and Cmax for the CYP2D6 AS = i in the DD(G)I scenario with clarithromycin or paroxetine, while AUClast, control and Cmax, control are the AUClast and Cmax values for the CYP2D6 AS = i without the concomitant use of perpetrator drugs.

CYP2D6 [7] = assay: PBPK model: CYP2D6-mediated metabolism (Km, kcat, contribution); set-up: species or system human; conditions: Assumed equal to Km of CYP2D6-mediated hydroxylation of (E)-4-OH-Clom, adapted with fu,inc=0.243; read-out: CYP2D6 Km → undef., assumed
Excerpt: An additional biotransformation process via CYP2B6 to (E)-4-OH-Clom was implemented to cover the fraction of CYP2D6-independent metabolism observed in the PM population and in CYP2D6 DD(G)I scenarios.
(E)-4-OH-Clom is metabolized via CYP2D6 to (Z)-3,4-dihydroxyclomiphene (implemented as an undefined metabolite), via an unspecific hepatic clearance mechanism and via CYP3A4 to the second active metabolite (E)-4-OH-DE-Clom. (E)-4-OH-DE-Clom is also formed via CYP2D6 metabolism of (E)-DE-Clom, which in turn, represents the main route of elimination of (E)-DE-Clom. Furthermore, (E)-DE-Clom is metabolized to minor extents through CYP2D6 and CYP3A4 to (E)-N,N-didesethylclomiphene (implemented as an undefined metabolite). The metabolism of (E)-4-OH-DE-Clom has not been extensively investigated, yet. According to work by Kröner, (E)-4-OH-DE-Clom is presumably metabolized through a CYP-mediated pathway to (Z)-3,4-dihydroxydesethyl-clomiphene. […]
This was integrated by accounting for the 80:20 metabolic ratio of CYP3A4 to CYP2D6 reported by Mazzarino and coworkers. […] As previously described, the ratio of the corresponding measured in vitro metabolic enzyme activities was used dur-ing the parameter estimation step for optimization of kcat values (kcat, CYP3A4 = 0.13 * kcat, CYP2D6)

[8] = cited from earlier work
[9] = ref [19] ((E)-Clom, (E)-4-OH-Clom), [17, 18] ((E)-DE-Clom) of supplement, read-out: CYP2D6 Km → undef.

Row | Compound | Km (CYP2D6 [1]; [9]) [µM] | IC50 (estrogen receptor) [nM] | maximum plasma concentration (Cmax) in CYP2D6 PM compared with NM [2] | IVSF, CYP2D6-mediated pathway → undef. (CYP2D6 [3]; AS=0, mean value assumed) | IVSF, CYP2D6-mediated pathway → undef. (CYP2D6 [3]; AS=0.5, mean value assumed) | IVSF, CYP2D6-mediated pathway → undef. (CYP2D6 [3]; AS=0.75, mean value assumed) | IVSF, CYP2D6-mediated pathway → undef. (CYP2D6 [3]; AS=1, mean value assumed) | IVSF, CYP2D6-mediated pathway → undef. (CYP2D6 [3]; AS=2 (NM, reference)) | IVSF, CYP2D6-mediated pathway → undef. (CYP2D6 [3]; AS=3, mean value assumed) | Solubility (pH 6.5) [4] [mg/ml] | pKa (base), literature [4] | pKa (acid) [4] | order of AUClast across CYP2D6 phenotypes [6] | observed AUClast effect ratio in clarithromycin DDGI scenario vs control ([6]; PM) | also measured
1 | CCN(CC)CCOc1ccc(/C(=C(/Cl)c2ccccc2)c2ccc(O)cc2)cc1 [(E)-4-OH-Clom, (E)-4-hydroxyclomiphene] | 3.6 | 2.2 | approximately ten-fold lower | 0 | 0.17 | 0.23 | 0.51 | 1 | 1.41 | 0.06 | 9.41 | 8.64 | AUCIM (AS = 0.5) > AUCNM > AUCUM > AUCPM | ~ 1.3 fold | Km (CYP3A4; read-out: CYP3A4 Km → (E)-4-OH-DE-Clom): 3.4 µM; fu (fraction unbound), literature [5]: 0.6%; Cmax change due to inhibition of CYP2D6 by paroxetine ([6]; all phenotypes except for PM): decreased; AUClast change during CYP3A4 inhibition ([6]; clarithromycin, all phenotypes): slight increase
2 | CCNCCOc1ccc(/C(=C(/Cl)c2ccccc2)c2ccc(O)cc2)cc1 [(E)-4-OH-DE-Clom, (E)-4-hydroxy-N-desethylclomiphene] |  | 0.9 | approximately ten-fold lower | 0 | 0.17 | 0.23 | 0.51 | 1 | 1.41 | 0.17 | 9.65 | 8.69 | AUCIM (AS = 0.5) > AUCNM > AUCUM > AUCPM | ~ 0.6 fold | logP (lipophilicity), literature ([4]; ref [23, 25-27], [30, 31], [25, 34], [38] of supplement): 4.47; Km (CYP2D6 [7]): 8.86 µM; observed DGI AUClast effect ratio ([6]; IM (AS = 1) vs NM): ~ 0.8
3 | CCNCCOc1ccc(/C(=C(/Cl)c2ccccc2)c2ccccc2)cc1 [(E)-DE-Clom, (E)-N-desethylclomiphene] | 0.97 |  |  | 0 | 0.17 | 0.23 | 0.51 | 1 | 1.41 | 0.46 | 9.59 |  |  |  | CYP2D6 contribution to the formation of the desethyl metabolite (CYP2D6 [1]; as incorporated in the model): ~ 20%; Km (CYP2D6 [1]; ref [17, 18] of supplement, read-out: CYP2D6 Km → (E)-4-OH-DE-Clom): 0.49 µM; IVSF, CYP2D6-mediated pathway → (E)-4-OH-DE-Clom (CYP2D6 [3]; AS=0, relative to NM, from in vitro formation rates, supplement ref [17]): 0; IVSF, CYP2D6-mediated pathway → (E)-4-OH-DE-Clom (CYP2D6 [3]; AS=0.5, relative to NM, from in vitro formation rates, supplement ref [17]): 0.16; IVSF, CYP2D6-mediated pathway → (E)-4-OH-DE-Clom (CYP2D6 [3]; AS=0.75, relative to NM, from in vitro formation rates, supplement ref [17]): 0.19; IVSF, CYP2D6-mediated pathway → (E)-4-OH-DE-Clom (CYP2D6 [3]; AS=1, relative to NM, from in vitro formation rates, supplement ref [17]): 0.44; IVSF, CYP2D6-mediated pathway → (E)-4-OH-DE-Clom (CYP2D6 [3]; AS=2 (NM, reference)): 1; IVSF, CYP2D6-mediated pathway → (E)-4-OH-DE-Clom (CYP2D6 [3]; AS=3, relative to NM, from in vitro formation rates, supplement ref [17]): 1.30; ratio kcat,CYP3A4 / kcat,CYP2D6 for metabolism to (E)-N,N-didesethylclomiphene (CYP3A4; from measured in vitro metabolic enzyme activities): 0.13; Km (CYP3A4; read-out: CYP3A4 Km → undef.): 0.97 µM; AUClast reduction during concomitant clarithromycin ([6]; PM): ~ 34%
4 | CCN(CC)CCOc1ccc(C(=C(Cl)c2ccccc2)c2ccccc2)cc1 [clomiphene, Clomiphene] |  |  |  |  |  |  |  |  |  |  |  |  |  |  | response to clomiphene therapy ([8]; CYP2D6 IM): all CYP2D6 intermediate metabolizers (IM) responded; non-responders to clomiphene therapy ([8]; CYP2D6 NM): 30%; women who do not respond during clomiphene therapy [8]: 8–54%
